Converted amounts (≈) assume the structure as drawn.
How the values were obtained:
Rattus norvegicus [1] = assay: Inhibition of AII induced rat assessed as vasoconstrictor at 15 mg/kg, iv; type: functional
[2] = target: T1, Type-1 angiotensin II receptor A (Rattus norvegicus, UniProt P25095); assay: Inhibition of rat adrenal cortex angiotensin II; type: tissue-based
T1 sequence (P25095 whole entry): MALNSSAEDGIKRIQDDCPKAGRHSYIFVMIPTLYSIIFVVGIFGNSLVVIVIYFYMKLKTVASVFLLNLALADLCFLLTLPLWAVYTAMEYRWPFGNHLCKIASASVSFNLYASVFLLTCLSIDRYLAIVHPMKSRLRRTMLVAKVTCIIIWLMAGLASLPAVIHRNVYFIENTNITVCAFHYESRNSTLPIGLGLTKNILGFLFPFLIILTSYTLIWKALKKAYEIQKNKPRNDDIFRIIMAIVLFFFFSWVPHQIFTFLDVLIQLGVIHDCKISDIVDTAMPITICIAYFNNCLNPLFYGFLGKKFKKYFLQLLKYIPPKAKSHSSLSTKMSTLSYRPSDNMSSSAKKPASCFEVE

[3] = test system: Staphylococcus saprophyticus; assay: Antimicrobial activity against Staphylococcus saprophyticus assessed as bacterial growth inhibition; type: functional
Klebsiella oxytoca = assay: Antimicrobial activity against Klebsiella oxytoca assessed as bacterial growth inhibition; type: functional
Staphylococcus aureus = assay: Antimicrobial activity against Staphylococcus aureus assessed as bacterial growth inhibition; type: functional
Bacillus subtilis = assay: Antimicrobial activity against Bacillus subtilis assessed as bacterial growth inhibition; type: functional
Proteus vulgaris = assay: Antimicrobial activity against Proteus vulgaris assessed as bacterial growth inhibition; type: functional
Candida albicans = assay: Antimicrobial activity against Candida albicans assessed as bacterial growth inhibition; type: functional
[4] = test system: Staphylococcus epidermidis; assay: Antimicrobial activity against Staphylococcus epidermidis assessed as bacterial growth inhibition; type: functional
Citrobacter freundii = assay: Antimicrobial activity against Citrobacter freundii assessed as bacterial growth inhibition; type: functional
Proteus mirabilis = assay: Antimicrobial activity against Proteus mirabilis assessed as bacterial growth inhibition; type: functional
Mycolicibacterium phlei = assay: Antimicrobial activity against Mycobacterium phlei assessed as bacterial growth inhibition; type: functional
Escherichia coli = assay: Antimicrobial activity against Escherichia coli assessed as bacterial growth inhibition; type: functional
Micrococcus luteus = assay: Antimicrobial activity against Micrococcus luteus assessed as bacterial growth inhibition; type: functional
Pseudomonas aeruginosa = assay: Antimicrobial activity against Pseudomonas aeruginosa assessed as bacterial growth inhibition; type: functional
[5] = target: T2, Type-2 angiotensin II receptor (Rattus norvegicus, UniProt P35351); assay: Binding affinity to AT2 in rat brain; type: tissue-based
T2 sequence (P35351 whole entry): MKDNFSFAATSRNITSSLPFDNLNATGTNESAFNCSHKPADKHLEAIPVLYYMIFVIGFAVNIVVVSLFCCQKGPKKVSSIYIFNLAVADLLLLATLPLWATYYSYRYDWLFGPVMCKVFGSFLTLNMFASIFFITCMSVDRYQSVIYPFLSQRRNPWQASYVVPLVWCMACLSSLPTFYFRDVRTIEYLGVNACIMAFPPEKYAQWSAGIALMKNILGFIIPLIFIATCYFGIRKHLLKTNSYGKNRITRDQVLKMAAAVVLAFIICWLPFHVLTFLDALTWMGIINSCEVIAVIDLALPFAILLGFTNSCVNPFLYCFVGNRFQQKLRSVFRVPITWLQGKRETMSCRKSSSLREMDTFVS

Cytospora mali = assay: Antifungal activity against Valsa mali assessed as bacterial growth inhibition at 50 ug/ml incubated for 5 days relative to control; type: functional; settings: 120 h, time 5 day
Fusarium graminearum = assay: Antifungal activity against Gibberella zeae assessed as bacterial growth inhibition at 50 ug/ml incubated for 5 days relative to control; type: functional; settings: 120 h, time 5 day
Fusarium oxysporum = assay: Antifungal activity against Fusarium oxysporum assessed as bacterial growth inhibition at 50 ug/ml incubated for 5 days relative to control; type: functional; settings: 120 h, time 5 day
Rattus norvegicus [6] = assay: Inhibition of AII induced mean arterial blood pressure in rat assessed as vasoconstrictor at 5 mg/kg, po; type: functional

SMILES	IC50 [2] [nM]	IC50 [5] [nM]	inhibition at 50 µg/mL (Cytospora mali) [%]	inhibition at 50 µg/mL (Fusarium graminearum) [%]	inhibition at 50 µg/mL (Fusarium oxysporum) [%]	further results
CCCCC1Nc2ccccc2C(=O)N1Cc1ccc(-c2ccccc2-c2nn[nH]n2)cc1 (stereo not drawn)	14000					inhibition in vivo at 15 mg/kg (Rattus norvegicus [1]): 88%
CCOC(=O)Oc1ccc(-n2c(/C=C/c3ccc(Cl)cc3)nc3cc([N+](=O)[O-])ccc3c2=O)cc1						MIC [3]: 125 mg/L (≈ 254 µM); MIC (Klebsiella oxytoca): 125 mg/L (≈ 254 µM); MIC (Staphylococcus aureus): 125 mg/L (≈ 254 µM); MIC (Bacillus subtilis): 125 mg/L (≈ 254 µM); MIC (Proteus vulgaris): 125 mg/L (≈ 254 µM); MIC (Candida albicans): 125 mg/L (≈ 254 µM); MIC [4]: 125 mg/L (≈ 254 µM); MIC (Citrobacter freundii): 125 mg/L (≈ 254 µM); MIC (Proteus mirabilis): 125 mg/L (≈ 254 µM); MIC (Mycolicibacterium phlei): 125 mg/L (≈ 254 µM); MIC (Escherichia coli): 125 mg/L (≈ 254 µM); MIC (Micrococcus luteus): 125 mg/L (≈ 254 µM); MIC (Pseudomonas aeruginosa): 125 mg/L (≈ 254 µM)
CCc1nc2ccc(N(Cc3ccccc3Cl)C(=O)c3ccccc3)cc2c(=O)n1Cc1ccc(-c2ccccc2-c2nn[nH]n2)cc1		0.22				
Cc1nc2ccc(N(Cc3ccccc3)C(=O)c3ccccc3)cc2c(=O)n1Cc1ccc(-c2ccccc2-c2nnn[nH]2)cc1		0.22				
C=CCn1cnc2ccccc2c1=O			0.9	5.5	4.9	
CCn1cnc2ccc(F)cc2c1=O			0.9	5.5	4.9	
CC(C)c1nc2ccc(N(Cc3ccccc3)C(=O)c3cccs3)cc2c(=O)n1Cc1ccc(-c2ccccc2-c2nnn[nH]2)cc1		0.22				
CCCn1cnc2ccc(Br)cc2c1=O			0.9	55	47.2	
CCCCC(CCCC)C1Nc2ccccc2C(=O)N1Cc1ccc(-c2ccccc2-c2nnn[nH]2)cc1 (stereo not drawn)	12000					inhibition in vivo at 15 mg/kg (Rattus norvegicus [1]): 88%
C=CCn1cnc2ccc(Br)cc2c1=O			30.4	5.5	4.9	
CCCC1Nc2ccccc2C(=O)N1Cc1ccc(-c2ccccc2-c2nn[nH]n2)cc1 (stereo not drawn)	540					inhibition in vivo at 15 mg/kg (Rattus norvegicus [1]): 88%
CCn1cnc2ccc(Br)cc2c1=O			0.9	5.5	4.9	
CC(C)c1nc2ccc(N(Cc3ccccc3)C(=O)c3ccccc3)cc2c(=O)n1Cc1ccc(-c2ccccc2-c2nnn[nH]2)cc1		0.22				
C=CCn1cnc2ccc(Cl)cc2c1=O			28.3	5.5	4.9	
CCCCc1nc2ccc(C(C)OC)cc2c(=O)n1Cc1ccc(-c2ccccc2-c2nn[nH]n2)cc1 (stereo not drawn)	18					Activity (Rattus norvegicus [6]): 65 mmHg
CCc1nc2ccc(N(Cc3ccccc3)C(=O)c3ccncc3)cc2c(=O)n1Cc1ccc(-c2ccccc2-c2nn[nH]n2)cc1		0.22				
CCCCC1N(Cc2ccc(-c3ccccc3-c3nn[nH]n3)cc2)C(=O)c2ccccc2N1C (stereo not drawn)	14000					inhibition in vivo at 15 mg/kg (Rattus norvegicus [1]): 88%
CCCCCN(C(=O)c1ccccc1)c1ccc2nc(CCC)n(Cc3ccc(-c4ccccc4-c4nn[nH]n4)cc3)c(=O)c2c1		1				
CCc1nc2ccc(N(CC=C(C)C)C(=O)c3ccccc3)cc2c(=O)n1Cc1ccc(-c2ccccc2-c2nn[nH]n2)cc1		0.46				
CCCCc1nc2ccc(C(C)(C)O)cc2c(=O)n1Cc1ccc(-c2ccccc2-c2nn[nH]n2)cc1	5					Activity (Rattus norvegicus [6]): 65 mmHg
C=CCn1cnc2ccc(F)cc2c1=O			0.9	5.5	4.9	
CCCCc1nc2ccc(C(C)(C)OC)cc2c(=O)n1Cc1ccc(-c2ccccc2-c2nn[nH]n2)cc1 [CL-329167]	18					Activity (Rattus norvegicus [6]): 65 mmHg
CCCCc1nc2ccc(COC)cc2c(=O)n1Cc1ccc(-c2ccccc2-c2nn[nH]n2)cc1	> 1000					Activity (Rattus norvegicus [6]): 65 mmHg
CCCc1nc2ccc(N(Cc3ccccc3)C(=O)OC(C)(C)C)cc2c(=O)n1Cc1ccc(-c2ccccc2-c2nnn[nH]2)cc1		0.46				
CCCn1cnc2ccc(F)cc2c1=O			0.9	5.5	4.9	
CCC1Nc2ccccc2C(=O)N1Cc1ccc(-c2ccccc2-c2nn[nH]n2)cc1 (stereo not drawn)	45000					inhibition in vivo at 15 mg/kg (Rattus norvegicus [1]): 88%
